From article PMC2976052 (The Journal of steroid biochemistry and molecular biology, 2010)
Like-named read-outs stand apart in the source and are kept apart here.

Assays:
GFP-GRER chimera [1] = target: T1, GFP-GRER chimera (Homo sapiens, UniProt P03372)
6020 cells = experiment: Cytotoxicity measurements by image analysis
GFP-GRER chimera [2] = target: T1, GFP-GRER chimera; conditions: ER agonist treatment ref 17; cited from earlier work
GFP-GRER chimera [3] = target: T1, GFP-GRER chimera; experiment: cell-based
parental C127 cell line = type: cell-based, murine; conditions: for nuclear translocation: parental cell line; for nuclear fluorescence in parental cell line: hits retested in parental cell line
[4] = staurosporine dose-response, 4 hours, 96-well
[5] = estradiol dose response, five 384-well plates

T1 sequence (P03372 302-595, change not shown): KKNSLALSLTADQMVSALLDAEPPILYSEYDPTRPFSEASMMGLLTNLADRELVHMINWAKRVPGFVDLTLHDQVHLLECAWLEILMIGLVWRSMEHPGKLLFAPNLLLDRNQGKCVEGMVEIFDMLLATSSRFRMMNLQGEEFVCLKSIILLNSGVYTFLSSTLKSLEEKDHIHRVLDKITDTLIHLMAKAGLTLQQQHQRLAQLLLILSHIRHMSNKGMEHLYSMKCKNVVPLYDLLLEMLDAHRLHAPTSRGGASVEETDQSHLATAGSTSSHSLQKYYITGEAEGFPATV

In the case of `CN[C@@H]1C[C@H]2O[C@@](C)([C@@H]1OC)n1c3ccccc3c3c4c(c5c6ccccc6n2c5c31)C(=O)NC4` [staurosporine], the “nuclear translocation result of cytotoxic compound” value (GFP-GRER chimera [1]; staurosporine dose-response for 4 hours, 96-well) is reported as “false positive nuclear translocation results”, the cytoplasmic area (6020 cells; [4]) is reported as “dose-dependent decrease in cytoplasmic area” and the nuclear area (6020 cells; [4]) is reported as “dose-dependent decrease in nuclear area”. The “ROIs (cell number)” value (6020 cells; staurosporine dose-response, data not shown) was “decrease in cell number with increasing staurosporine concentration”.
In the case of `CCCc1c(-c2ccc(O)cc2)nn(-c2ccc(O)cc2)c1-c1ccc(O)cc1` [PPT, propyl pyrazoletriol], the “effect on transcription, ERE-driven gene reporter” value (GFP-GRER chimera [2]) is listed as “induced transcription” and the EC50 (GFP-GRER chimera [3]) is listed as 141 nM.
`COc1cccc2c1C(=O)c1c(O)c3c(c(O)c1C2=O)C[C@@](O)(C(=O)CO)C[C@@H]3O[C@H]1C[C@H](N)[C@H](O)[C@H](C)O1` [adriamycin] gave a nuclear translocation (parental C127 cell line; hit retest in quadruplicate) of 95% and a nuclear translocation (GFP-GRER chimera [1]; 6020 (assay) cell line, hit retest in quadruplicate) of 97%.
With `O=C(c1ccc(OCCN2CCCCC2)cc1)c1c(-c2ccc(O)cc2)sc2cc(O)ccc12` [raloxifene] the nuclear translocation (parental C127 cell line; hit retest in quadruplicate) was 0%.
With `C[C@]12CC[C@@H]3c4ccc(O)cc4CC[C@H]3[C@@H]1CC[C@@H]2O` [estradiol, 17-β estradiol] the “nuclear fluorescence in parental cell line” value (parental C127 cell line) was “did not show nuclear fluorescence”, the nuclear translocation (parental C127 cell line; 5 μM estradiol control) was 0% and the cytoplasmic area (6020 cells; [5]) was “does not decrease”. The nuclear area (6020 cells; [5]) was “remains unchanged”.
For `C[C@]12CC[C@@H]3c4ccc(O)cc4CC[C@H]3[C@@H]1CCC2=O` [estrone], the “nuclear fluorescence in parental cell line” value (parental C127 cell line) was “did not show nuclear fluorescence”.
